Where a name gives a salt, the structure may show the parent alone.
Biological target: T1, human EP4 (hEP4) receptor (Homo sapiens, UniProt P35408)
T1 construct: expressed in transfected cells; host or cells: HEK-293 T cells, transient co-transfection with polyethylenimine
Assay: In vitro human EP4 functional antagonist activity using BRET biosensors (cAMP EPAC biosensor, TCS2510 stimulation)
Assay type: cell-based
Settings: antagonist activity vs EC60 TCS2510, hEP4 in HEK-293 T cells
Summary of the method: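 HEK-293T cells transiently co-transfected with hEP4 and EPAC cAMP BRET biosensor (luciferase/GFP), assayed 48 h later in HEPES-buffered saline after 1 h at 22 °C. After 5 min with compound, cells stimulated with EC60 TCS2510 and BRET read for 10 min; IC50 from 10-point, 4.5-log variable-slope fits, duplicate, two experiments.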

T1 sequence (P35408 whole entry): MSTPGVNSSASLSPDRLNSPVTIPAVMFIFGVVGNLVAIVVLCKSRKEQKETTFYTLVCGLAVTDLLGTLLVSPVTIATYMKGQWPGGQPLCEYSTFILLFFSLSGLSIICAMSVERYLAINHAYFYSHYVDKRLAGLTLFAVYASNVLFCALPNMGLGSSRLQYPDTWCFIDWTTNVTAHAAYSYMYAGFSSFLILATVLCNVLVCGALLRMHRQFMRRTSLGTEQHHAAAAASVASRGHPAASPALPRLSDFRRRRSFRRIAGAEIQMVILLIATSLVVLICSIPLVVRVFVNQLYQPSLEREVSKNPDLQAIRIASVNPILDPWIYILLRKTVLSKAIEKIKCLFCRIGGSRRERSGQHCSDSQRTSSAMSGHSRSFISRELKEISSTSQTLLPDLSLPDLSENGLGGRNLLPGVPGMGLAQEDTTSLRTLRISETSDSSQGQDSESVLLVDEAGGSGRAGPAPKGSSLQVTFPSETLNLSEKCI

SMILES	IC50
C[C@H](NC(=O)C1(N(C)CCOc2cccc(Cl)c2)CCCCC1)c1ccc(C(=O)O)cc1 [Example 57, 4-[(1S)-1-[[1-[2-(3-Chlorophenoxy)ethyl-methyl-amino]cyclohexanecarbonyl]amino]ethyl]benzoic acid, hydrochloride]	< 0.1 µM
C[C@H](NC(=O)C1(c2ccc(OCCC3CCCCC3)cn2)CCOCC1)c1ccc(C(=O)O)cc1 [Example 120, 4-[(1S)-1-[[4-[5-(2-Cyclohexylethoxy)-2-pyridyl]tetrahydropyran-4-carbonyl]amino]ethyl]benzoic acid]	< 1 µM
COc1ccc(OCCN(C)C2(C(=O)NC3(c4ccc(C(=O)O)cc4)CC3)CCOCC2)cc1 [Example 40, 4-[1-[[4-[2-(4-Methoxyphenoxy)ethyl-methyl-amino]tetrahydropyran-4-carbonyl]amino]cyclopropyl]benzoic acid, hydrochloride]	< 1 µM
C[C@H](NC(=O)C1(NCCCc2ccccc2)CCOCC1)c1ccc(C(=O)O)cc1 [Example 18, 4-[(1S)-1-[[4-(3-Phenylpropylamino)tetrahydropyran-4-carbonyl]amino]ethyl]benzoic acid, hydrochloride]	< 1 µM
C[C@H](NC(=O)C1(c2cccc(OCC3CCCCC3)n2)CCOCC1)c1ccc(C(=O)O)cc1 [Example 115, 4-[(1S)-1-[[4-[6-(Cyclohexylmethoxy)-2-pyridyl]tetrahydropyran-4-carbonyl]amino]ethyl]benzoic acid]	< 1 µM
CN(CCOc1ccccc1Cl)C1(C(=O)NC2(c3ccc(C(=O)O)cc3)CC2)CCOCC1 [Example 30, 4-[1-[[4-[2-(2-Chlorophenoxy)ethyl-methyl-amino]tetrahydropyran-4-carbonyl]amino]cyclopropyl]benzoic acid, hydrochloride]	< 0.1 µM
C[C@H](NC(=O)C1(NCCOc2ccc(Cl)cc2)CCOCC1)c1ccc(C(=O)O)cc1 [Example 11, 4-[(1S)-1-[[4-[2-(4-Chlorophenoxy)ethylamino]tetrahydropyran-4-carbonyl]amino]ethyl]benzoic acid, hydrochloride]	< 1 µM
CCN(CCOc1cccc(Cl)c1)C1(C(=O)N[C@@H](C)c2ccc(C(=O)O)cc2)CCOCC1 [Example 10, 4-[(1S)-1-[[4-[2-(3-Chlorophenoxy)ethyl-ethyl-amino]tetrahydropyran-4-carbonyl]amino]ethyl]benzoic acid, hydrochloride]	< 0.1 µM
O=C(O)c1ccc(C2(NC(=O)C3(NCCOc4ccccc4)CCOCC3)CC2)cc1 [Example 24, 4-[1-[[4-(2-Phenoxyethylamino)tetrahydropyran-4-carbonyl]amino]cyclopropyl]benzoic acid, hydrochloride]	< 1 µM
C[C@H](NC(=O)C1(c2ccc(OCCC3CCCCC3)cc2)CCOCC1)c1ccc(C(=O)O)cc1 [Example 95, 4-[(1S)-1-[[4-[4-(2-Cyclohexylethoxy)phenyl]tetrahydropyran-4-carbonyl]amino]ethyl]benzoic acid]	< 1 µM
CCCN(CCOc1ccccc1)C1(C(=O)NC2(c3ccc(C(=O)O)cc3)CC2)CCOCC1 [Example 26, 4-[1-[[4-[Propyl(2-phenoxyethyl)amino]tetrahydropyran-4-carbonyl]amino]cyclopropyl]benzoic acid, hydrochloride]	< 1 µM
Cc1cccc(OCCN(C)C2(C(=O)NC3(c4ccc(C(=O)O)cc4)CC3)CCOCC2)c1 [Example 35, 4-[1-[[4-[2-(3-Methylphenoxy)ethyl-methyl-amino]tetrahydropyran-4-carbonyl]amino]cyclopropyl]benzoic acid, hydrochloride]	< 0.1 µM
C[C@H](NC(=O)C1(c2cc(OCC3CCCCC3)ccn2)CCOCC1)c1ccc(C(=O)O)cc1 [Example 117, 4-[(1S)-1-[[4-[4-(Cyclohexylmethoxy)-2-pyridyl]tetrahydropyran-4-carbonyl]amino]ethyl]benzoic acid]	< 1 µM
CN(CCOc1ccccc1C(F)(F)F)C1(C(=O)NC2(c3ccc(C(=O)O)cc3)CC2)CCOCC1 [Example 42, 4-[1-[[4-[2-(2-Trifluoromethylphenoxy)ethyl-methyl-amino]tetrahydropyran-4-carbonyl]amino]cyclopropyl]benzoic acid, hydrochloride]	< 1 µM
C[C@H](NC(=O)C(C)(C)N1CC[C@@H](Oc2cccc(C(F)(F)F)c2)C1)c1ccc(S(C)(=N)=O)cc1 (stereo partly drawn) [Example 205, 2-Methyl-N-((1S)-1-(4-(S-methylsulfonimidoyl)phenyl)ethyl)-2-((R)-3-(3-(trifluoromethyl)phenoxy)pyrrolidin-1-yl)propanamide, hydrochloride]	< 0.1 µM
C[C@H](NC(=O)C1(NCCOc2ccccc2)CCC(F)(F)CC1)c1ccc(C(=O)O)cc1 [Example 65, 4-[(1S)-1-[[4,4-Difluoro-1-(2-phenoxyethylamino)cyclohexanecarbonyl]amino]ethyl]benzoic acid, hydrochloride]	< 1 µM

The remaining lines, values ahead:

IC50	SMILES
< 1 µM	C[C@H](NC(=O)C1(N2CC[C@@H](Oc3cccc(C(F)(F)F)c3)C2)CCOCC1)c1ccc(O)cc1 [Example 181, N—((S)-1-(4-Hydroxyphenyl)ethyl)-4-((R)-3-(3-(trifluoromethyl)phenoxy)pyrrolidin-1-yl)tetrahydro-2H-pyran-4-carboxamide, hydrochloride]
< 0.1 µM	O=C(O)c1ccc(C2(NC(=O)C3(N4CC[C@@H](Oc5ccccc5)C4)CCOCC3)CC2)cc1 [Example 153, 4-[1-[[4-((3R)-3-Phenoxypyrrolidin-1-yl)tetrahydropyran-4-carbonyl]amino]cyclopropyl]benzoic acid, hydrochloride]
< 1 µM	C[C@H](NC(=O)C1(c2cccc(OC3CCCCC3)c2)CCOCC1)c1ccc(C(=O)O)cc1 [Example 100, 4-[(1S)-1-[[4-[3-(Cyclohexoxy)phenyl]tetrahydropyran-4-carbonyl]amino]ethyl]benzoic acid]
< 0.1 µM	C[C@H](NC(=O)C1(N2CC[C@@H](Oc3cccc(Cl)c3)C2)CCC1)c1ccc(C(=O)O)cc1 [Example 159, 4-[(1S)-1-[[1-[(3R)-3-(3-Chlorophenoxy)pyrrolidin-1-yl]cyclobutane-1-carbonyl]amino]ethyl]benzoic acid, hydrochloride]
< 0.1 µM	COc1cccc(OCCNC2(C(=O)N[C@@H](C)c3ccc(C(=O)O)cc3)CCOCC2)c1 [Example 13, 4-[(1S)-1-[[4-[2-[3-Methoxyphenoxy]ethylamino]tetrahydropyran-4-carbonyl]amino]ethyl]benzoic acid, hydrochloride]
< 0.1 µM	CNC(=O)c1ccc([C@H](C)NC(=O)C2(N3CC[C@@H](Oc4cccc(C(F)(F)F)c4)C3)CCOCC2)cc1 [Example 169, hydrochloride]
< 0.1 µM	C[C@H](NC(=O)C1(N2CC[C@@H](Oc3cccc(C(F)(F)F)c3)C2)CCOCC1)c1ccc(-c2nn[nH]n2)cc1 [Example 175, N—((S)-1-(4-(2H-Tetrazol-5-yl)phenyl)ethyl)-4-((R)-3-(3-(trifluoromethyl)phenoxy)pyrrolidin-1-yl)tetrahydro-2H-pyran-4-carboxamide, hydrochloride]
< 0.1 µM	COc1ccc([C@H](C)NC(=O)C2(N3CC[C@@H](Oc4cccc(C(F)(F)F)c4)C3)CCOCC2)cc1 [Example 195, N—((S)-1-(4-Methoxyphenyl)ethyl)-4-((R)-3-(3-(trifluoromethyl)phenoxy)pyrrolidin-1-yl)tetrahydro-2H-pyran-4-carboxamide, hydrochloride]
< 0.1 µM	C[C@H](NC(=O)C1(N2CC[C@@H](OC3CCCCC3)C2)CCOCC1)c1ccc(C(=O)O)cc1 [Example 154, 4-[(1S)-1-[[4-[(3R)-3-(Cyclohexyloxy]pyrrolidin-1-yl]tetrahydropyran-4-carbonyl]amino]ethyl]benzoic acid, hydrochloride]
< 0.1 µM	C[C@H](NC(=O)C1(N2CC[C@@H](Oc3cccc(OC(F)(F)F)c3)C2)CCOCC1)c1ccc(C(=O)O)cc1 [Example 146, 4-[(1S)-1-[[4-[(3R)-3-[3-(Trifluoromethoxy)phenoxy]pyrrolidin-1-yl]tetrahydropyran-4-carbonyl]amino]ethyl]benzoic acid, hydrochloride]
< 1 µM	C[C@H](NC(=O)C1(N2CC[C@H](Oc3cccc(Cl)c3)C2)CCOCC1)c1ccc(C(=O)O)cc1 [Example 138, 4-[(1S)-1-[[4-[(3S)-3-(3-Chlorophenoxy)pyrrolidin-1-yl]tetrahydropyran-4-carbonyl]amino]ethyl]benzoic acid, hydrochloride]
< 0.1 µM	C[C@H](NC(=O)C1(N2CC[C@@H](Oc3cccc(C(F)(F)F)c3)C2)CCOCC1)c1ccc(-c2cn[nH]c2)cc1 [Example 176, N—((S)-1-(4-(1H-Pyrazol-4-yl)phenyl)ethyl)-4-((R)-3-(3-(trifluoromethyl)phenoxy)pyrrolidin-1-yl)tetrahydro-2H-pyran-4-carboxamide, hydrochloride]
< 0.1 µM	COc1cccc(O[C@@H]2CCN(C3(C(=O)NC4(c5ccc(C(=O)O)cc5)CC4)CCOCC3)C2)c1 [Example 149, 4-[1-[[4-[(3R)-3-(3-Methoxyphenoxy)pyrrolidin-1-yl]tetrahydropyran-4-carbonyl]amino]cyclopropyl]benzoic acid, hydrochloride]
< 1 µM	C[C@H](NC(=O)C1(N2CC[C@@H](Oc3cccc(C(F)(F)F)c3)C2)CCOCC1)c1cccc(F)c1 [Example 188, N—((S)-1-(3-Fluorophenyl)ethyl)-4-((R)-3-(3-(trifluoromethyl)phenoxy)pyrrolidin-1-yl)tetrahydro-2H-pyran-4-carboxamide, hydrochloride]
< 0.1 µM	O=C(O)c1ccc(C2(NC(=O)C3(N4CC[C@@H](Oc5cccc(F)c5)C4)CCOCC3)CC2)cc1 [Example 143, 4-[1-[[4-[(3R)-3-(3-Fluorophenoxy)pyrrolidin-1-yl]tetrahydropyran-4-carbonyl]amino]cyclopropyl]benzoic acid, hydrochloride]
